Data taken from the NIST ThermoML archive (doi:10.1021/je900938b).
Numbers after ± are expanded uncertainties.

Columns and labels:
[1] = xn = mol fraction of the nth substance listed; conditions: 101 kPa, Liquid, x2 = 0; for mass density: Pycnometric method
[2] = 101.3 kPa, Liquid; for mass density: Pycnometric method

OCCO [1,2-ethanediol] + OCC(O)CO
[1]
Conditions | mass density [kg/m3] | viscosity [mPa·s]
298.15 K | – | 17.4 ± 0.39
303.15 K | 1107.1 ± 11 | 13.8 ± 0.31
308.15 K | 1103.5 ± 11 | 11.5 ± 0.26
313.15 K | 1100.3 ± 11 | 9.42 ± 0.21
318.15 K | – | 8.1 ± 0.18
323.15 K | 1093.5 ± 11 | 6.95 ± 0.15
328.15 K | – | 5.96 ± 0.13
333.15 K | 1085.6 ± 11 | 5.22 ± 0.11
338.15 K | 1082.1 ± 11 | 4.53 ± 0.1

OCC(O)CO [glycerol]
[2]
Conditions | mass density [kg/m3] | viscosity [mPa·s]
298.15 K | 1257.8 ± 13 | 943.8 ± 76
303.15 K | 1254.7 ± 13 | 628.9 ± 44
308.15 K | 1252.2 ± 12 | 431.9 ± 26
313.15 K | 1249.4 ± 12 | 295.9 ± 15
318.15 K | 1245.8 ± 12 | 185.8 ± 7.7
323.15 K | 1242.3 ± 12 | 151.2 ± 5.4
328.15 K | 1239.3 ± 12 | 108.4 ± 3.3
333.15 K | 1236.1 ± 12 | 84.8 ± 2.2
338.15 K | 1232.8 ± 12 | 62.2 ± 1.6

OCCO [1,2-ethanediol]
[2]
Conditions | mass density [kg/m3] | viscosity [mPa·s]
298.15 K | – | 17.4 ± 0.39
303.15 K | 1107.1 ± 11 | 13.8 ± 0.31
308.15 K | 1103.5 ± 11 | 11.5 ± 0.26
313.15 K | 1100.3 ± 11 | 9.42 ± 0.21
318.15 K | – | 8.1 ± 0.18
323.15 K | 1093.5 ± 11 | 6.95 ± 0.15
328.15 K | – | 5.96 ± 0.13
333.15 K | 1085.6 ± 11 | 5.22 ± 0.11
338.15 K | 1082.1 ± 11 | 4.53 ± 0.1
